The record followed here is ChEMBL document CHEMBL1146562, “Turbinatine, a potential key intermediate in the biosynthesis of corynanthean-type indole alkaloids” (2003).

Molecules are shown by their SMILES. Where only a bound is given, the exact number is not on record here.

Experiment [1] relates to Saccharomyces cerevisiae. As to the kind of experiment: DNA damaging activity in yeast RS 188N mutant assessed as drug level required to produce 12 mm zone of inhibition. The experiment is classed as functional.
In experiment [2] the test system is Saccharomyces cerevisiae. The experiment is described as follows: DNA damaging activity in yeast RS 322YK mutant assessed as drug level required to produce 12 mm zone of inhibition. Type of experiment: functional.

On to `C=C[C@H]1[C@H](O[C@@H]2O[C@H](CO)[C@@H](O)[C@H](O)[C@H]2O)OC=C(C(=O)OC)[C@H]1C[C@@H]1N[C@@H](C(=O)O)Cc2c1[nH]c1ccccc21`, for which the IC12 is above 250 µg/mL in the experiment with Saccharomyces cerevisiae [1] and 100 µg/mL with Saccharomyces cerevisiae [2].
On the same counts, the results for `C/C=C(\C=O)[C@@H]1C[C@H]2c3[nH]c4ccccc4c3CCN2C=C1C(=O)OC` [ISOVALLESIACHOTAMINE] are above 250 µg/mL and 100 µg/mL.
On the same counts, the results for `C=C[C@H]1[C@H](O[C@@H]2O[C@H](CO)[C@@H](O)[C@H](O)[C@H]2O)OC=C(C(=O)OC)[C@H]1C[C@@H]1NCCc2c1[nH]c1ccccc21` [STRICTOSIDINE] are above 250 µg/mL and 100 µg/mL.
The matching figures for `C=C[C@H]1[C@@H](/C(=C/O)C(=O)OC)C[C@H]2c3[nH]c4ccccc4c3CCN2[C@H]1O[C@H]1O[C@@H](CO)[C@H](O)[C@@H](O)[C@@H]1O` [TURBINATINE]: above 250 µg/mL and 100 µg/mL.
For `C/C=C(/C=O)[C@@H]1C[C@H]2c3[nH]c4ccccc4c3CCN2C=C1C(=O)OC` [VALLESIACHOTAMINE], the IC12 in the experiment with Saccharomyces cerevisiae [1] was above 250 µg/mL; with Saccharomyces cerevisiae [2] it was 100 µg/mL.
